Entries after “also recorded” stand apart in the source; their conditions may differ.
What was measured:
[1] = system: monocyte IL-6 production; assay: NB-monocyte co-culture, IL-6 ELISA of supernatant; assay type: cell-based, human
Description: (§1) Monocytes were directly cultured with wild-type or TNF, TNFR1, TNFR2 KO NB cell lines in ULA plates for 24 hours. Activation of NF-kB in monocytes and NB was measured by flow cytometry and cytokine production measured by ELISA from co-culture supernatant. To evaluate the contact-dependence of monocyte activation by NB, monocytes were cultured in ULA plates with seven-day NB conditioned medium mixed 1:1 with complete monocyte medium for 24 hours and analyzed for IL-6 production. To assess the growth advantage of NB cultured with monocytes, NB-luc cell lines and monocytes were seeded in tissue culture-treated white 96-well plates (1:1 ratio) and cultured for four days. Luminescence was measured using a TECAN Spark plate reader (TECAN). To evaluate changes in proliferation, NB was pulsed for 10 minutes in CellTrace Violet (2 μM, Invitrogen) and seeded at 100,000 cells per well in a 12-well tissue culture-treated plate. Monocytes were added directly to the NB monolayer at a density of 100,000 per well and incubated for four days. CellTrace Violet expression was analyzed by flow cytometry.
(§2) Cytokines released by monocytes were detected within co-culture supernatants using the Human TNF-alpha Quantikine ELISA Kit (TNFα, R&D Systems) and the Human IL-6 Quantikine ELISA Kit (IL-6, R&D Systems) according to manufacturer's guidelines. ELISA plates were read using a TECAN Spark plate reader (TECAN). Global cytokine regulation was evaluated using a custom Luminex panel containing the following cytokines: CX3CL1, CXCL10, EGF, FGF-2, Flt3L, G-CSF, GM-CSF, IL-1α, IL-1β, IL-1Ra, IL-4, IL-6, IL-8, IL-10, IL-12 (p40), IL-12 (p′70), M-CSF, MCP-1, MCP-3, MDC, MIP-1α, MIP-1β, TGFα, TNFα, TNFβ, and VEGF-A (Human Cytokine Panel A, Millipore-Sigma).

[2] = system: sTNFα production; assay: NB-monocyte co-culture, TNFα ELISA of supernatant; assay type: cell-based, human
Description: as §1, §2

[3] = system: NF-κB signaling in monocytes; assay: Intracellular IκBα in monocyte population of co-culture (PhosFlow flow cytometry); assay type: cell-based, human; details: TAPI 40 μM, 24 hours, vs vehicle control
Description: as §1
(§3) To evaluate the expression of TNFα in NB and monocytes, cells were first stimulated with LPS (50 ng/mL) in the presence of GolgiStop (BD Biosciences) and fixed using CytoFix/Cytoperm buffer (BD Biosciences). Cells were then stained with TNFα-PE (BD Biosciences). To evaluate the expression of TNFR1 and TNFR2 on NB and monocytes, cells were stained with TNFR1-BV421 and TNFR2-APC (BD Biosciences) in FACS staining buffer containing 0.05% sodium azide to prevent receptor/antibody processing. To estimate changes in NF-kB expression, treated co-cultures were first stained with ZombieViolet (1 μL/test, Biolegend) to counterstain dead cells and APC-H7 CD45 and/or FITC-CD14 to label monocytes for 20 minutes at room temperature. […] All flow samples were run using an LSRII 5-laser flow cytometer (Texas Children's Hospital Cancer Center Flow Cytometry Core, Houston, Tex.) and analyzed using FlowJo Software (Treestar).

[4] = system: NF-κB signaling in NB cells; assay: Intracellular IκBα in NB population of co-culture (PhosFlow flow cytometry); assay type: cell-based, human; details: TAPI 40 μM, 24 hours, vs vehicle control (FIG. 23C)
Description: as §1, §3

[5] = system: mTNFα; details: TAPI 40 μM, 24 hours, CD45+GD2− monocyte population
Description: (FIG. 13C) NB and monocyte co-cultures were treated with TNF converting enzyme inhibitor TAPI (40 μM) or vehicle control (Veh., 0.2% DMSO) for 24 hours. Surface expression of mTNFα within CD45+GD2− monocyte population was performed using flow cytometry. MFI as indicated. Data are from a representative of two experiments run in duplicate.

Compound	IL-6 production from monocytes ([1]; CHLA-255/monocyte co-culture, IKKi 0-1000 nM (FIG. 12C, FIG. 19))	IL-6 production in NB-monocyte co-cultures ([1]; IKK inhibitor VII 125 nM, 24 hours, vs 0.1% DMSO (FIG. 1C))	soluble (s)TNFα production from monocytes ([2]; CHLA-255/monocyte co-culture, IKKi 0-1000 nM (FIG. 12D, FIG. 19))	IL-6 levels in co-culture supernatant ([1]; TAPI 40 μM, 24 hours, vs vehicle control)	reduction in sTNFα levels in co-culture supernatant ([2]; TAPI 40 μM, 24 hours) [%]	intracellular IκBα expression in monocytes [3]	IκBα expression level in NB cells [4]	increase in surface staining for mTNFα [5] [%]
O=C(c1ccc(Nc2nccc(-c3cc4ccccc4s3)n2)cc1)N1CCC(N2CCCC2)CC1 [IKK inhibitor VII]	dose-dependent abrogation	reversed IL-6 production	dose-dependent abrogation	–	–	–	–	–
CC(C)C[C@H](CC(=O)NO)C(=O)N[C@@H](Cc1ccc2ccccc2c1)C(=O)N[C@@H](C)C(=O)NCCN [TAPI, TAPI-1]	–	–	–	increased the activation of monocytes as measured by IL-6 levels; also recorded: significantly increased IL-6 levels	90	no effect	significant increase in IκBα expression level	40

Source: patent US20230103554A1, “TNFa SIGNALING [sequence] TUMOR-PROMOTING INFLAMMATION THAT CAN BE TARGETED TO THERAPY” (Baylor College of Medicine, priority 2020, published 2023)
